Test results: patent US20120122860A1, “SOLID FORMS OF SULFONAMIDES AND AMINO ACIDS” (Plexxikon, Inc., priority 2009, published 2012)

Experiments:
Btk = Btk (Homo sapiens, UniProt Q06187); experiment: Kinase activity assay, Btk
B-Raf V600E = B-Raf V600E (Homo sapiens, UniProt P15056, V600E); experiment: Kinase activity assay, B-Raf V600E; type: biochemical; conditions: read-out: activity toward kinase B-Raf V600E, IC50
Fms = Fms (Homo sapiens, UniProt P07333); experiment: Kinase activity assay, Fms
Sequence of Fms (P07333 20-972): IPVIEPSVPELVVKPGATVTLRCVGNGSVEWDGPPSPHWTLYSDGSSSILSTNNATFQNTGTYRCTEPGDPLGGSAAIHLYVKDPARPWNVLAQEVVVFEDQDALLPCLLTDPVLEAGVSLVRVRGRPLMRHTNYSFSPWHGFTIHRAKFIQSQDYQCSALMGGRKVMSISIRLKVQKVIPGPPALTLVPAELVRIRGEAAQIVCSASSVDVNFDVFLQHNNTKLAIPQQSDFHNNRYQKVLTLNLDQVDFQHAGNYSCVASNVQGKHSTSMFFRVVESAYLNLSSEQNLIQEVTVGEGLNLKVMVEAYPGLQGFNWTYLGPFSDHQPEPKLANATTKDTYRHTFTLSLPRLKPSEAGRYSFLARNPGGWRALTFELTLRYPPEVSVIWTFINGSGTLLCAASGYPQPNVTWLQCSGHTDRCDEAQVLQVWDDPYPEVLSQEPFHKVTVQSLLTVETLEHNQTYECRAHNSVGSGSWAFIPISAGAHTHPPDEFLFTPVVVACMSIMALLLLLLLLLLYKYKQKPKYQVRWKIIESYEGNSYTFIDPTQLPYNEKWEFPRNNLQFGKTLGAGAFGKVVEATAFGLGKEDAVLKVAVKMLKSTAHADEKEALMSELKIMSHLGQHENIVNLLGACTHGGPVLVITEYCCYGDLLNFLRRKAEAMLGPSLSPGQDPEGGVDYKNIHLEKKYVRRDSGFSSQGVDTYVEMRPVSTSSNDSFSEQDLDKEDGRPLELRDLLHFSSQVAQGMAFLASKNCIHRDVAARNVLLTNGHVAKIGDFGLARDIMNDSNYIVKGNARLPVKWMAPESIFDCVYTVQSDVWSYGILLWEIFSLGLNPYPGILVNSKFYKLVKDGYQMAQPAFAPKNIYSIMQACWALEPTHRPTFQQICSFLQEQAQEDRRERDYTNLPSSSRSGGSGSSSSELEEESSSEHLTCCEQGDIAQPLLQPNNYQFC

Kdr = Kdr (Homo sapiens, UniProt P35968); experiment: Kinase activity assay, Kdr
Sequence of Kdr (P35968 20-1356): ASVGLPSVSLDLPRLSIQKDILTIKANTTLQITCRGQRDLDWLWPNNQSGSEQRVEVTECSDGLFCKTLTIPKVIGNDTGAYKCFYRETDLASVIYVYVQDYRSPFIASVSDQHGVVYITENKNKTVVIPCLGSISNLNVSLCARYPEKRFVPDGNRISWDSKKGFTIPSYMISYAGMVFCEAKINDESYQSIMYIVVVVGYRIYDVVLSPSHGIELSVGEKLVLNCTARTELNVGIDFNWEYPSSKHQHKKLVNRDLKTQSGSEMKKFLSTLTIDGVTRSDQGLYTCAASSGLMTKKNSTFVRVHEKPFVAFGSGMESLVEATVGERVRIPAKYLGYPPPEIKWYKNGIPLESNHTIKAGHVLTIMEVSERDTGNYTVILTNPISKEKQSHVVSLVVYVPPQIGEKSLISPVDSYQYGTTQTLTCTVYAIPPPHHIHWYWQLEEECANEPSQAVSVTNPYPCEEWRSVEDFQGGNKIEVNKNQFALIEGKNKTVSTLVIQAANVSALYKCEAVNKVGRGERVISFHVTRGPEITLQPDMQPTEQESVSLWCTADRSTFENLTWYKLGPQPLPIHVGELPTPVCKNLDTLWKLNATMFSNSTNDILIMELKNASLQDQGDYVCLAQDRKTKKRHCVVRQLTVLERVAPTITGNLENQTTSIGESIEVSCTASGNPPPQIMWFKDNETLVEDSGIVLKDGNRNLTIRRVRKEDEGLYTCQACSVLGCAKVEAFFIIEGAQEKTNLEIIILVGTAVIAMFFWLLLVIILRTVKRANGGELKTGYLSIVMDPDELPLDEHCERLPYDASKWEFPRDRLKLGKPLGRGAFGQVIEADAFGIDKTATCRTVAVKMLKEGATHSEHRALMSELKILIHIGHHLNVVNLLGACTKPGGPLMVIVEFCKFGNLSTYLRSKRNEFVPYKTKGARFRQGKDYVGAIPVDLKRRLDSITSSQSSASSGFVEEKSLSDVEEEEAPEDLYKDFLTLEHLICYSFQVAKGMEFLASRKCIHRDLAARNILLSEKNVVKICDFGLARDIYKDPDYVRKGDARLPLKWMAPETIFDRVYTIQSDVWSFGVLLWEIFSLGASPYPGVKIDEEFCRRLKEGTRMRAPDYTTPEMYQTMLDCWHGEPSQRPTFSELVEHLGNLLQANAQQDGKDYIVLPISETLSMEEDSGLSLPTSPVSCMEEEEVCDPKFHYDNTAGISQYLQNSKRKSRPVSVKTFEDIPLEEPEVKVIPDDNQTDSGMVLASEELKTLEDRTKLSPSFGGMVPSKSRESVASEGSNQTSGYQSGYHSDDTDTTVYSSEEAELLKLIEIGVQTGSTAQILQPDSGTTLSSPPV

TEC = molecular target: T1, TEC (Homo sapiens, UniProt P42680); experiment: Kinase activity assay, TEC
T1 sequence (P42680 1-631): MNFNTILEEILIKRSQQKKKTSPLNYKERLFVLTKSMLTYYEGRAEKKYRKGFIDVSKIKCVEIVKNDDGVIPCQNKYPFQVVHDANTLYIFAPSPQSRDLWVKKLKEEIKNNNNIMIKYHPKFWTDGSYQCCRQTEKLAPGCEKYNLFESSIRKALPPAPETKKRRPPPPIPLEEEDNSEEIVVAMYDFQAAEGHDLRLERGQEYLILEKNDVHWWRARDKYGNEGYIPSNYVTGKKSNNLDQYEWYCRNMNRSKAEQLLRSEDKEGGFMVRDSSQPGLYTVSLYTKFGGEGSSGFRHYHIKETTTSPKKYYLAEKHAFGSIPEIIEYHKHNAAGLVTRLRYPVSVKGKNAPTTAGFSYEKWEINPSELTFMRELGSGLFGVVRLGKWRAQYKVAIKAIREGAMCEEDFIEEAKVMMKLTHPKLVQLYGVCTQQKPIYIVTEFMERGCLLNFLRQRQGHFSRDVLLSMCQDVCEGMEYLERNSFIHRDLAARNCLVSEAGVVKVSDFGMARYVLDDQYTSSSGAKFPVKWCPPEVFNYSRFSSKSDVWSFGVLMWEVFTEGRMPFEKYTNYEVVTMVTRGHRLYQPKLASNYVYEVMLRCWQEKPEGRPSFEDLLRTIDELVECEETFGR

Kit = Kit (Homo sapiens, UniProt P10721); experiment: Kinase activity assay, Kit
Sequence of Kit (P10721 26-976): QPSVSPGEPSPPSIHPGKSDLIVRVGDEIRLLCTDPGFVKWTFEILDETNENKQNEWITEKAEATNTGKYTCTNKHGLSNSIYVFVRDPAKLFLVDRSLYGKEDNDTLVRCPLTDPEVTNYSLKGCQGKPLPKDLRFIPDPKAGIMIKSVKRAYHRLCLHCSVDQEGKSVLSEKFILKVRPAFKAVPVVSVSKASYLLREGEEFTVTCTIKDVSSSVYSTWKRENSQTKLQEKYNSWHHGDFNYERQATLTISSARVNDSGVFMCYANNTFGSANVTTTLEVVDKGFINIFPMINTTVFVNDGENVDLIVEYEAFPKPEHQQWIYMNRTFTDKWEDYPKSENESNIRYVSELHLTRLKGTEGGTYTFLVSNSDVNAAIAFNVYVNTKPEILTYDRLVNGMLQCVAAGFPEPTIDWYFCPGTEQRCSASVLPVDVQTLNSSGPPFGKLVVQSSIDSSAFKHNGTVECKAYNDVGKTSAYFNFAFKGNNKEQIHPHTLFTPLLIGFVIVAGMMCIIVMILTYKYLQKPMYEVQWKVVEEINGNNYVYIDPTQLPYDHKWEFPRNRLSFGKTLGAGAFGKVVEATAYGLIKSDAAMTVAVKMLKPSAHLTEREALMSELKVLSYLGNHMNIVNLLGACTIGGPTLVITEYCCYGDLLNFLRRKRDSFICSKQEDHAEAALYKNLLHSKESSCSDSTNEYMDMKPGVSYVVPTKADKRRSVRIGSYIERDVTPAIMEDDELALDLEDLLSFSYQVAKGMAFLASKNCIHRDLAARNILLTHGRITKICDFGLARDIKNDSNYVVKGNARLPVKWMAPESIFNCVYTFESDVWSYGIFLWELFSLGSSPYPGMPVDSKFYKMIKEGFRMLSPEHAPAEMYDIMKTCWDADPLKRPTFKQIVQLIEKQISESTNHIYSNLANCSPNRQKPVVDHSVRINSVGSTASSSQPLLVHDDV

B-Raf = B-Raf (Homo sapiens, UniProt P15056); experiment: Kinase activity assay, B-Raf; type: biochemical; conditions: read-out: activity toward kinase B-Raf, IC50
Sequence of B-Raf (P15056 whole entry): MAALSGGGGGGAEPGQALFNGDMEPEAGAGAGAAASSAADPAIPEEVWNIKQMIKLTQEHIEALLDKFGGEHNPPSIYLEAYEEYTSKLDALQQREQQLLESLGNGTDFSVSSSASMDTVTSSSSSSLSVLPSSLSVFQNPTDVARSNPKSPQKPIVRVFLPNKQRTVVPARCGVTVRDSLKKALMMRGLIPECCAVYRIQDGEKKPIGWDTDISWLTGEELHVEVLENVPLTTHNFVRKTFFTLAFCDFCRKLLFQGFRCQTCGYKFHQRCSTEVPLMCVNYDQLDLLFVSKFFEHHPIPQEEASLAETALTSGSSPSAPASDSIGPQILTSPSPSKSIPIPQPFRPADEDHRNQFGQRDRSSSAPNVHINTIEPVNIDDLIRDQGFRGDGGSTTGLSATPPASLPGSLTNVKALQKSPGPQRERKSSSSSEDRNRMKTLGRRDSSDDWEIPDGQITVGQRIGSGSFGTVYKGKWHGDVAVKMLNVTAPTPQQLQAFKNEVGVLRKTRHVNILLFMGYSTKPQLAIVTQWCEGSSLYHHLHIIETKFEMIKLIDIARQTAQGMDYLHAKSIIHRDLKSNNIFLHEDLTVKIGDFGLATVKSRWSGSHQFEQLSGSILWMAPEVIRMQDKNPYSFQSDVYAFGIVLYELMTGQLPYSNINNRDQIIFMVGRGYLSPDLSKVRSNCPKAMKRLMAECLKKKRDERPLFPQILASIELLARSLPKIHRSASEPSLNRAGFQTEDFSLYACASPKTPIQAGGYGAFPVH

Src = Src (Homo sapiens, UniProt P12931); experiment: Kinase activity assay, Src
Sequence of Src (P12931 whole entry): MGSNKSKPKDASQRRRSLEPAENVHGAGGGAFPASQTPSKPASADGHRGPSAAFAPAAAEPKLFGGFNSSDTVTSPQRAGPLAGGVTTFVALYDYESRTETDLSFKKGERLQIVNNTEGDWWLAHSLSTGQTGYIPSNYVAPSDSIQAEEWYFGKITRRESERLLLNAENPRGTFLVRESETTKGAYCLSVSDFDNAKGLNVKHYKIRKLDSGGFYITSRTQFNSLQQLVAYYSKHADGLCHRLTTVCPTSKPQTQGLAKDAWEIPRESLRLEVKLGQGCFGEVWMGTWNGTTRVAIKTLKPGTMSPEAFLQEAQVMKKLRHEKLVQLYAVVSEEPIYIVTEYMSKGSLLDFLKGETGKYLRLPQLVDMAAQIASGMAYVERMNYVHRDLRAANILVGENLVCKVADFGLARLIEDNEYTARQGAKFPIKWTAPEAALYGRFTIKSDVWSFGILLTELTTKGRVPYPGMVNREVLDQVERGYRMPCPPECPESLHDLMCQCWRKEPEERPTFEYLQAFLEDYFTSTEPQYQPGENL

MAP4K4 = MAP4K4 (Homo sapiens, UniProt O95819); experiment: Kinase activity assay, MAP4K4
C-Raf = C-Raf (Homo sapiens, UniProt P04049); experiment: Kinase activity assay, C-Raf

Measured: IC50

Sequence of B-Raf V600E (P15056 whole entry V600E): as the sequence (P15056 whole entry) above, with V600E counted along it

Cn1cc(-c2cnc3[nH]cc(C(=O)c4cccc(NS(=O)(=O)c5ccc(Cl)cc5)c4)c3c2)cn1 [P-2129, 4-Chloro-N-{3-[5-(1-methyl-1H-pyrazol-4-yl)-1H-pyrrolo[2,3-b]pyridine-3-carbonyl]-phenyl}-benzenesulfonamide]
≤ 10 µM: Btk | B-Raf V600E | Fms | Kdr | TEC | Kit

O=C(c1cc(NS(=O)(=O)c2cccc(F)c2)ccc1F)c1c[nH]c2ncccc12 [P-2120, 3-Fluoro-N-[4-fluoro-3-(1H-pyrrolo[2,3-b]pyridine-3-carbonyl)-phenyl]-benzenesulfonamide]
≤ 10 µM: Btk | B-Raf V600E | Fms | Kdr | TEC | Kit

CCCS(=O)(=O)Nc1cccc(C(=O)c2c[nH]c3ncc(-c4cnn(C)c4)cc23)c1 [P-2454, Propane-1-sulfonic acid {3-[5-(1-methyl-1H-pyrazol-4-yl)-1H-pyrrolo[2,3-b]pyridine-3-carbonyl]-phenyl}-amide]
≤ 10 µM: Btk | B-Raf V600E | Fms | Kdr | TEC | Kit

CCS(=O)(=O)Nc1ccc(F)c(C(=O)c2c[nH]c3ncc(-c4cnn(C)c4)cc23)c1F [P-2271, Ethanesulfonic acid {2,4-difluoro-3-[5-(1-methyl-1H-pyrazol-4-yl)-1H-pyrrolo[2,3-b]pyridine-3-carbonyl]-phenyl}-amide]
not listed: MAP4K4 | C-Raf
≤ 10 µM: all other assays above

Cn1cc(-c2cnc3[nH]cc(C(=O)c4cccc(NS(=O)(=O)c5cccc(Cl)c5)c4)c3c2)cn1 [P-2134, 3-Chloro-N-{3-[5-(1-methyl-1H-pyrazol-4-yl)-1H-pyrrolo[2,3-b]pyridine-3-carbonyl]-phenyl}-benzenesulfonamide]
≤ 10 µM: Btk | B-Raf V600E | Fms | Kdr | TEC | Kit

Cn1cc(-c2cnc3[nH]cc(C(=O)c4cccc(NS(=O)(=O)c5ccc(F)cc5)c4)c3c2)cn1 [P-2130, 4-Fluoro-N-{3-[5-(1-methyl-1H-pyrazol-4-yl)-1H-pyrrolo[2,3-b]pyridine-3-carbonyl]-phenyl}-benzenesulfonamide]
≤ 10 µM: Btk | B-Raf V600E | Fms | Kdr | TEC | Kit

CS(=O)(=O)c1cccc(-c2cnc3[nH]cc(C(=O)c4cccc(NS(=O)(=O)C5CCCCC5)c4)c3c2)c1 [P-2461, Cyclohexanesulfonic acid {3-[5-(3-methanesulfonyl-phenyl)-1H-pyrrolo[2,3-b]pyridine-3-carbonyl]-phenyl}-amide]
≤ 10 µM: Btk | Fms | Kdr | TEC | Kit | MAP4K4

O=C(c1cc(NS(=O)(=O)N2CCCCC2)ccc1F)c1c[nH]c2ncc(Cl)cc12 [P-2468, Piperidine-1-sulfonic acid [3-(5-chloro-1H-pyrrolo[2,3-b]pyridine-3-carbonyl)-4-fluoro-phenyl]-amide]
≤ 10 µM: Btk | B-Raf V600E | Fms | Kdr | TEC | Kit

O=C(c1cccc(NS(=O)(=O)N2CCCCC2)c1)c1c[nH]c2ncc(Cl)cc12 [P-2471, Piperidine-1-sulfonic acid [3-(5-chloro-1H-pyrrolo[2,3-b]pyridine-3-carbonyl)-phenyl]-amide]
≤ 10 µM: Btk | Fms | Kdr | TEC | Kit

CCCS(=O)(=O)Nc1ccc(F)c(C(=O)c2c[nH]c3ncc(-c4ccc(NC(C)=O)cc4)cc23)c1F [P-2161, N-(4-{3-[2,6-Difluoro-3-(propane-1-sulfonylamino)-benzoyl]-1H-pyrrolo[2,3-b]pyridin-5-yl}-phenyl)-acetamide]
not listed: B-Raf | MAP4K4 | C-Raf
≤ 10 µM: all other assays above

CCCCS(=O)(=O)Nc1cccc(C(=O)c2c[nH]c3ncc(-c4cnn(C)c4)cc23)c1 [P-2455, Butane-1-sulfonic acid {3-[5-(1-methyl-1H-pyrazol-4-yl)-1H-pyrrolo[2,3-b]pyridine-3-carbonyl]-phenyl}-amide]
≤ 10 µM: Btk | B-Raf V600E | Fms | Kdr | TEC | Kit

CCCS(=O)(=O)Nc1ccc(F)c(C(=O)c2c[nH]c3ncc(-c4cnn(CCN5CCOCC5)c4)cc23)c1F [P-2177, Propane-1-sulfonic acid (2,4-difluoro-3-{5-[1-(2-morpholin-4-yl-ethyl)-1H-pyrazol-4-yl]-1H-pyrrolo[2,3-b]pyridine-3-carbonyl}-phenyl)-amide]
not listed: MAP4K4 | C-Raf
≤ 10 µM: all other assays above

CCC(C)S(=O)(=O)Nc1ccc(F)c(C(=O)c2c[nH]c3ncc(OC)cc23)c1F (stereo not shown) [P-2308, Butane-2-sulfonic acid [2,4-difluoro-3-(5-methoxy-1H-pyrrolo[2,3-b]pyridine-3-carbonyl)-phenyl]-amide]
not listed: Fms | Kit | B-Raf
≤ 10 µM: all other assays above

Cn1cc(-c2cnc3[nH]cc(C(=O)c4c(F)ccc(NS(=O)(=O)C5CC5)c4F)c3c2)cn1 [P-2352, Cyclopropanesulfonic acid {2,4-difluoro-3-[5-(1-methyl-1H-pyrazol-4-yl)-1H-pyrrolo[2,3-b]pyridine-3-carbonyl]-phenyl}-amide]
not listed: MAP4K4 | C-Raf
≤ 10 µM: all other assays above

Cn1cc(-c2cnc3[nH]cc(C(=O)c4cccc(NS(=O)(=O)c5cccc(C(F)(F)F)c5)c4)c3c2)cn1 [P-2131, N-{3-[5-(1-Methyl-1H-pyrazol-4-yl)-1H-pyrrolo[2,3-b]pyridine-3-carbonyl]-phenyl}-3-trifluoromethyl-benzenesulfonamide]
≤ 10 µM: Btk | B-Raf V600E | Fms | Kdr | TEC | Kit

Cn1cc(-c2cnc3[nH]cc(C(=O)c4cccc(NS(=O)(=O)c5cccc(F)c5)c4)c3c2)cn1 [P-2136, 3-Fluoro-N-{3-[5-(1-methyl-1H-pyrazol-4-yl)-1H-pyrrolo[2,3-b]pyridine-3-carbonyl]-phenyl}-benzenesulfonamide]
≤ 10 µM: Btk | B-Raf V600E | Fms | Kdr | TEC | Kit
